The Kinase Knowledgebase extract (Sharma et al. 2016)

Legend:
PIK3CD (Human) = PIK3CD (Human) (UniProt O00329); test: Assessment of PIK3CD Kinase Activity
PIK3CG (human) = PIK3CG (human) (UniProt P48736); test: Assessment of PIK3CG Kinase Activity
PIK3CA (human) = PIK3CA (human) (UniProt P42336); test: Assessment of PIK3CA Kinase Activity
PIK3CB (Human) = PIK3CB (Human) (UniProt P42338); test: Assessment of PIK3CB Kinase Activity
Sequence of PIK3CB (Human) (P42338 whole entry, looked up): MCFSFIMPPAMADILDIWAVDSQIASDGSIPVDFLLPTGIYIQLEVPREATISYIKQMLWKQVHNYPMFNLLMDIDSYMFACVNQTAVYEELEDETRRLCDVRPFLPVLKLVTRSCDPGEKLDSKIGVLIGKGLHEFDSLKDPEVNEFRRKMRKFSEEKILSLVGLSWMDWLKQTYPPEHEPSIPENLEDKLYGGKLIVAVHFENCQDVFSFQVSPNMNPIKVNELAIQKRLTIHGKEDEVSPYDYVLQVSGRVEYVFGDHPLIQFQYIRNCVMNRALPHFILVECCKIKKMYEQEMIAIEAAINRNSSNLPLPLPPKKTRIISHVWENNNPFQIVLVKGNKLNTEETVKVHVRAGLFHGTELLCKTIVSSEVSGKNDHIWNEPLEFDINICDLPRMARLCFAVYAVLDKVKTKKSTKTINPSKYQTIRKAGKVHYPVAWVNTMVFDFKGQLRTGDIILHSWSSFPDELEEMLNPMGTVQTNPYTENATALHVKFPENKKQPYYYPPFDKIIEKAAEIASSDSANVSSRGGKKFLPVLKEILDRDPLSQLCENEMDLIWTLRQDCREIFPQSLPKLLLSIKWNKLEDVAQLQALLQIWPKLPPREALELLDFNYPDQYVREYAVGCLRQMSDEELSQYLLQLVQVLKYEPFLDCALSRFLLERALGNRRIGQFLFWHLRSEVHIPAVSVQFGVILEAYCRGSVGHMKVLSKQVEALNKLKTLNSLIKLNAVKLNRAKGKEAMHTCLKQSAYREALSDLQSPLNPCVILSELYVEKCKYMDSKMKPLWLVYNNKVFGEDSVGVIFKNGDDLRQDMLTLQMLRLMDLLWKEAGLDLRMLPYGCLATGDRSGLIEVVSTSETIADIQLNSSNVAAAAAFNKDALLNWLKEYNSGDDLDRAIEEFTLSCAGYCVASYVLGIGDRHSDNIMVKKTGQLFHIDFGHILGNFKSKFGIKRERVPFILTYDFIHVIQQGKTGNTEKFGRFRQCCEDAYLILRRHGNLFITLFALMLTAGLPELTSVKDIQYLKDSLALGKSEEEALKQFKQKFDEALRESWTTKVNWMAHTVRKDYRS

Sequence of PIK3CD (Human) (O00329 whole entry, looked up): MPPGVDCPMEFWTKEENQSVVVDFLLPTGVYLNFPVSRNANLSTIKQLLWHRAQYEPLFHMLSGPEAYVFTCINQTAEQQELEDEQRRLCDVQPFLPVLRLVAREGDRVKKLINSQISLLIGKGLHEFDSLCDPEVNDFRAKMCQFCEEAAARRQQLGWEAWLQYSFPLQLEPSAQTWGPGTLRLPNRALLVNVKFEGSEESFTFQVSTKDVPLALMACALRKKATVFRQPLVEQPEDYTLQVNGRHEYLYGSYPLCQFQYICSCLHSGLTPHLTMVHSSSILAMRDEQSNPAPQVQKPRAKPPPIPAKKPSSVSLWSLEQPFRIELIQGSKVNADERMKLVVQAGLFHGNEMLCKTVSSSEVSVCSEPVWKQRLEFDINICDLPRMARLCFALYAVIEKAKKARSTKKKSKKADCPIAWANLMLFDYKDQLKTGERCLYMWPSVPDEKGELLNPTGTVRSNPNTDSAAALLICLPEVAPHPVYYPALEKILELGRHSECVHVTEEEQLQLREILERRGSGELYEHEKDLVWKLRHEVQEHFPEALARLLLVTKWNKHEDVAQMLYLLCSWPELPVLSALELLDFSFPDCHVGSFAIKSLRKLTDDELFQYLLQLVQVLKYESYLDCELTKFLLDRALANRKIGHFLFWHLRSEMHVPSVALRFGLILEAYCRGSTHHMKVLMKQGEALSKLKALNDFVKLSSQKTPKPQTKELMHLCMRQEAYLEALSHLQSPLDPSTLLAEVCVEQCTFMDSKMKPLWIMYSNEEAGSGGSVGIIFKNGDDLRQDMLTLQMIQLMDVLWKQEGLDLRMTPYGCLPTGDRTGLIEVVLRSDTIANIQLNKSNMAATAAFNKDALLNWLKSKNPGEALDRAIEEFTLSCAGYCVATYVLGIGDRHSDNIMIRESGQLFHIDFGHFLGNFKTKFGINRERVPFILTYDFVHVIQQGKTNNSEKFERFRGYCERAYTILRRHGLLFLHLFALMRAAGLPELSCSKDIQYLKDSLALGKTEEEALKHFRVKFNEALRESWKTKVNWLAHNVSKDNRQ
Sequence of PIK3CG (human) (P48736 whole entry, looked up): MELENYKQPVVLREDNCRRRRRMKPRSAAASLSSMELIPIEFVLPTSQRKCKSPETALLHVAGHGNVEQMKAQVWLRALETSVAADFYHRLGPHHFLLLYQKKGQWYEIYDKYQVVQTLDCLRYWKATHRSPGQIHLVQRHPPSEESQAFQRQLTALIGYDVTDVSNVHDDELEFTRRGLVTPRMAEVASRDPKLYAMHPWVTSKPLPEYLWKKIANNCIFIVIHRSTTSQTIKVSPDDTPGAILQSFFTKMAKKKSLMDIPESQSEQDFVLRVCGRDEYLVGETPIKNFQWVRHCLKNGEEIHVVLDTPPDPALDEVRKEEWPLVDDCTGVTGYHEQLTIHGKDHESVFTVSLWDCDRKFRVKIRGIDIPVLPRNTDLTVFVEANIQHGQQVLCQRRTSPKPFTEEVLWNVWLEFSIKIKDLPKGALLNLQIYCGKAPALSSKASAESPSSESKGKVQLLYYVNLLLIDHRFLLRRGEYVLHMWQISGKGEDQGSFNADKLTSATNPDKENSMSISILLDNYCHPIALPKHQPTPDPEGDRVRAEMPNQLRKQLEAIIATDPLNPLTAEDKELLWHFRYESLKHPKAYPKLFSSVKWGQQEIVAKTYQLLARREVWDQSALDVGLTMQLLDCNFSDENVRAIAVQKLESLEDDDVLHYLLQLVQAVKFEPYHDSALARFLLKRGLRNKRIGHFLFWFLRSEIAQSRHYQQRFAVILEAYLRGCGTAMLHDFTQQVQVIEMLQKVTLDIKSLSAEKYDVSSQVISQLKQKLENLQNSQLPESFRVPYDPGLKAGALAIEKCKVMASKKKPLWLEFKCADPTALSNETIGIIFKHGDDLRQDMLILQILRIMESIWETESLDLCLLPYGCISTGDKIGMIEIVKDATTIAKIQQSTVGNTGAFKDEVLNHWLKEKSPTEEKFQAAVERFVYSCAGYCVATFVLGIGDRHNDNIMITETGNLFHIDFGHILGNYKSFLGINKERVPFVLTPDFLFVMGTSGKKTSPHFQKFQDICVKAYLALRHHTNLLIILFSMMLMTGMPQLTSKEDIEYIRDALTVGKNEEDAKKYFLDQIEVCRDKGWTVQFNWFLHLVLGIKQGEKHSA
Sequence of PIK3CA (human) (P42336 whole entry, looked up): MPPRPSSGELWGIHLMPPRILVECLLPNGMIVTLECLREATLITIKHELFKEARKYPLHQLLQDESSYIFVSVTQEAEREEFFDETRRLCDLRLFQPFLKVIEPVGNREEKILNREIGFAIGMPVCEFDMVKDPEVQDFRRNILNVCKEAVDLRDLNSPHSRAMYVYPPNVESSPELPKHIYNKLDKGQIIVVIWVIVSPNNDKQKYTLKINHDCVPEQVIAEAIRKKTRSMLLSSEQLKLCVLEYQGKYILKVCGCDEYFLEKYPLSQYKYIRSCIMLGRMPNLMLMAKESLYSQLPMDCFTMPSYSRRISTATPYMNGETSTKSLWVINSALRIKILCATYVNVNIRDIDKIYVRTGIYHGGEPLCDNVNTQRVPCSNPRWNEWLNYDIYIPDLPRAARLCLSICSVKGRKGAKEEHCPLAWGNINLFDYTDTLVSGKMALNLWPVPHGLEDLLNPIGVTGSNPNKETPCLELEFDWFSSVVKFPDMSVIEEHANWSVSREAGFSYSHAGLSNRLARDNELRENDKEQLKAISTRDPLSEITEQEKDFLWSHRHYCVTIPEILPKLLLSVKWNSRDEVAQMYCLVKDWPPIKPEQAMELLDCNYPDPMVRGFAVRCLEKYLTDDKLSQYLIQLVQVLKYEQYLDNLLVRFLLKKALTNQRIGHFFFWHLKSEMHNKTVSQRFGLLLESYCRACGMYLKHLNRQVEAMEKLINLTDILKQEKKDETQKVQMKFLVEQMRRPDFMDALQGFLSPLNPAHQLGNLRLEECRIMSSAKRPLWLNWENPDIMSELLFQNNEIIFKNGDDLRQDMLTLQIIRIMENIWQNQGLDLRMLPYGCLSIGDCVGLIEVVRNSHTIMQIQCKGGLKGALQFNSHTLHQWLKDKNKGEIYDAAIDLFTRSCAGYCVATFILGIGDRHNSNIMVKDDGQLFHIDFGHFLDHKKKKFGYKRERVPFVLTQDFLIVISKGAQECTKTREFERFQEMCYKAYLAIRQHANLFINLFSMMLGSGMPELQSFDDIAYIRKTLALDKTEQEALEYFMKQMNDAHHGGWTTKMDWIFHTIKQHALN

Row | IC50 (PIK3CD (Human)) [µM] | IC50 (PIK3CG (human)) [µM] | IC50 (PIK3CA (human)) [µM] | IC50 (PIK3CB (Human)) [µM] | SMILES
1 | ≤ 0.1 | ≤ 0.1 | ≤ 0.1 | ≤ 0.1 | CN1CCN(c2nc3ccccc3cc2Cn2nc(-c3ccc4nc(N)sc4c3)c3c(N)ncnc32)CC1
2 | ≤ 0.1 | – | – | – | Nc1ncnc2c1c(-c1cccc(O)c1)nn2Cc1cc2ccccc2nc1-c1cccnc1
3 | ≤ 0.1 | ≤ 0.1 | 0.1 to 1 | – | Nc1nc2ccc(-c3nn(Cc4nc5ccccc5nc4N4CCCC4)c4ncnc(N)c34)cc2s1
4 | ≤ 0.1 | 0.1 to 1 | 0.1 to 1 | ≤ 0.1 | CC(=O)Nc1nc2ccc(-c3nn(Cc4nc5ccccc5nc4N4CCN(C)CC4)c4ncnc(N)c34)cc2s1
5 | ≤ 0.1 | – | – | – | Nc1ncnc2c1c(-c1ccc3cn[nH]c3c1)nn2Cc1cc2ccccc2nc1N1CCCC1
6 | 0.1 to 1 | – | – | – | NC(=O)C=Cc1nn(Cc2cc3ccccc3nc2-c2ccccc2F)c2ncnc(N)c12
7 | ≤ 0.1 | ≤ 0.1 | ≤ 0.1 | – | CC(=O)Nc1nc2ccc(-c3nn(Cc4nc5ccccc5nc4N4CCCC4)c4ncnc(N)c34)cc2s1
8 | ≤ 0.1 | – | – | 0.1 to 1 | CN1CCN(c2nc3ccccc3nc2Cn2nc(-c3cc(O)cc(F)c3)c3c(N)ncnc32)CC1
9 | ≤ 0.1 | ≤ 0.1 | – | – | Nc1ncnc2c1c(C=C1SC(=O)NC1=O)nn2Cc1cc2ccccc2nc1-c1ccccc1F
10 | ≤ 0.1 | ≤ 0.1 | 0.1 to 1 | 0.1 to 1 | CC(c1cc2ccccc2nc1-c1ccccc1)n1nc(-c2cc(O)cc(F)c2)c2c(N)ncnc21 (configuration not stated)
11 | ≤ 0.1 | – | – | – | CCC(c1cc2ccccc2nc1N1CCCC1)n1nc(C#C[C@@H](C)O)c2c(N)ncnc21 (some centres not stated)
12 | ≤ 0.1 | – | 0.1 to 1 | – | Cc1nccn1-c1nc2ccccc2cc1Cn1nc(-c2ccc3nc(N)sc3c2)c2c(N)ncnc21
13 | ≤ 0.1 | – | – | – | Nc1nc2ccc(-c3nn(Cc4cc5ccccc5nc4-c4ccccc4C(F)(F)F)c4ncnc(N)c34)cc2[nH]1
14 | 0.1 to 1 | – | – | – | Nc1ncc(-c2nn(Cc3cc4ccccc4nc3-c3ccccc3)c3ncnc(N)c23)cn1
15 | ≤ 0.1 | ≤ 0.1 | – | – | Cc1ccccc1-c1nc2ccccc2cc1Cn1nc(-c2ccc3nc(N)sc3c2)c2c(N)ncnc21
